In patent US20190083521A1, “COMBINATION THERAPY FOR TREATING CANCER” (Epizyme, Inc., priority 2014, published 2019):
Like-named read-outs stand apart in the source and are kept apart here.

What was measured:
[1] = tested on: MOLM-13 (MLL-AF9) cells; assay: Combination proliferation assay with Compound A2 (CellTiter-Glo, Chou-Talalay CI); format: cell-based, human
Method in brief: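 Viability by CellTiter-Glo ATP luminescence; fraction affected versus DMSO controls, combination index by Chou-Talalay (CI <1 synergy, >1 antagonism).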

[2] = tested on: MV4-11 (MLL-AF4) cells; assay: as above; format: cell-based, human
Method in brief: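 Viability by CellTiter-Glo ATP luminescence; fraction affected versus DMSO controls; combination index by Chou-Talalay method (CI <1 synergy, >1 antagonism).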

[3] = tested on: SKM-1 (non-MLL-rearranged AML) cells; assay: as above; format: cell-based, human
Method: (§1) Graphs representing values of combination index (CI) versus Fractional effect (Fa) known as Fa-CI plots were generated and synergy was evaluated.
(§2) Viability was determined using CellTiter-Glo® (Promega).
MV4-11 cells were maintained in IMDM supplemented with 10% fetal bovine serum. MOLM-13 and SKM-1 cells were maintained in Roswell Park Memorial Institute medium (RPMI) supplemented with 10% fetal bovine serum. They were cultured in flasks or plates in a humidified 5% CO2 atmosphere.
Proliferation studies were performed using MOLM-13, MV4-11 and SKM-1 cell lines in vitro to evaluate the cancer cell killing effect of a combination of two agents together on cell growth. Initial proliferation studies were performed to determine the IC50 values of a given compound in each cell line. The cell counts were measured by ATP quantitation using the Promega Cell Titer Glo kit and luminescence values correspond to the amount of ATP in a given well.
Compounds evaluated for synergy in the co-treatment phase were tested in a range which was bracketed around the IC50's. The compounds were plated to a 96 well plate in a matrix format which includes increasing concentrations of each drug in the combination in a constant ratio, in addition to the effect of each compound alone in the study. Cells were seeded and grown in the log-linear phase for 3 or 7 days in the cotreatment phase. Maximum and minimum inhibition (DMSO alone) controls were used in each plate to calculate fraction affected (Fa) of a test well. DMSO concentration was kept at 0.1% v/v. The drug combination analysis was performed utilizing the Chou-Talalay method. Synergy was determined using the software package Calcusyn by Biosoft. The combination index (CI) is the term used to describe the level of synergy or antagonism in a given test system. A combination index less than one indicates synergy, and a CI greater than one indicates antagonism.
The drug combination analysis was performed using the Chou-Talalay method. Graphs representing values of combination index (CI) versus Fractional effect (Fa) known as Fa-CI plots were generated and synergy was evaluated.

[4] = tested on: EOL-1 (MLL-PTD) cells; assay: Combination proliferation assay with Compound A2 (Chou-Talalay CI); format: cell-based, human
Method: as §1, §2

[5] = tested on: KOPM-88 (MLL-PTD) cells; assay: as above; format: cell-based, human
Method: as §1, §2

[6] = tested on: SKM-1 cells; assay: Example 6 combination screen: 300 nM EPZ-5676 pre-treatment, second compound 72 h, ATPLite, IC50 shift; format: cell-based, human; details: SKM-1 cells; 300 nM EPZ-5676 pre-treatment (4 + 3 days) vs DMSO, then 2nd compound 72 h; ATPLite; IC50 shift of 2nd compound
Method: (§3) Cells were then equilibrated in incubators for 24 hours before treatment with a second compound. Treated assay plates were incubated with a second compound for 72 hours. After this time, plates were developed for endpoint analysis using ATPLite to measure ATP content, which is used as an indicator of cell viability.
“N/D” means that IC50 of the second compound could not be determined for both conditions.

[7] = tested on: MOLM-13 (MLL-AF9) cells; assay: Example 7 primary screen: 300 nM EPZ-5676 pre-treatment, second compound 72 h, ATPLite, GI100 shift; format: cell-based, human; details: MOLM-13 (MLL-AF9); 300 nM EPZ-5676 pre-treatment vs DMSO
Method: as §3, with “Cells were split using EPZ-5676 or DMSO containing growth media and further incubated for an additional 3-day pre-treatment time. Cells were finally seeded in growth media containing EPZ-5676 or DMSO in 384-well plates at 500 cell/well density. Cells” for “Cells”
(§4) “N/D” means the GI100 of the second compound could not be determined for both conditions and “-” means not tested.
(§5) Growth Inhibition (GI) as a measure of cell viability: The cell viability of vehicle was measured at the time of dosing the second agent (T0) and after seventy-two hours (T72). A GI reading of 0% represents no growth inhibition—cells treated with test compound as compared to T72 vehicle signals were measured. […] A GI 200% represents complete death of all cells in the culture well. Compounds reaching an activity plateau of GI 200% are considered cytotoxic. GI is calculated by applying the following test and equation: […]

[8] = tested on: SKM-1 (non-MLLr) cells; assay: as above; format: cell-based, human; details: SKM-1 (non-MLLr); 300 nM EPZ-5676 pre-treatment vs DMSO
Method: as §3, with “Cells were split using EPZ-5676 or DMSO containing growth media and further incubated for an additional 3-day pre-treatment time. Cells were finally seeded in growth media containing EPZ-5676 or DMSO in 384-well plates at 500 cell/well density. Cells” for “Cells”
as §4, §5

[9] = tested on: OCI-AML-4 (MLL-ENL) cells; assay: as above; format: cell-based; details: OCI-AML-4 (MLL-ENL); 300 nM EPZ-5676 pre-treatment vs DMSO
Method: as §3, with “Cells were split using EPZ-5676 or DMSO containing growth media and further incubated for an additional 3-day pre-treatment time. Cells were finally seeded in growth media containing EPZ-5676 or DMSO in 384-well plates at 500 cell/well density. Cells” for “Cells”
as §4, §5

[10] = tested on: MOLM-13 (MLL-AF9) cells; assay: Example 7 retest: EPZ-5676 pre-treatment, second compound 72 h, Cell Titer Glo, growth inhibition; format: cell-based, human; design: GI100: unit not given here; details: MOLM-13 (MLL-AF9)
[11] = tested on: SKM-1 (non-MLLr) cells; assay: as above; format: cell-based, human; design: GI100: unit not given here; details: SKM-1 (non-MLLr)
[12] = tested on: OCI-AML-4 (MLL-ENL) cells; assay: as above; format: cell-based; details: OCI-AML-4 (MLL-ENL)
[13] = tested on: THP-1 (MLL-AF9) cells; assay: as above; format: cell-based; design: GI100: unit not given here; details: NRAS G12D
[14] = tested on: ML-2 (MLL-AF6) cells; assay: as above; format: cell-based; design: GI100: unit not given here; details: ML-2 (MLL-AF6), KRAS A146T (het)
[15] = tested on: RS4-11 (MLL-AF4) cells; assay: as above; format: cell-based; design: GI100: unit not given here; details: RS4-11 (MLL-AF4), Ras mutation status: None known, second compound, 72 h
[16] = 300 nM EPZ-5676 pre-treatment vs DMSO
[17] = KRAS K117N (homo), second compound, 72 h

## COc1cccc2c1C(=O)c1c(O)c3c(c(O)c1C2=O)C[C@@](O)(C(C)=O)C[C@@H]3O[C@H]1C[C@H](N)[C@H](O)[C@H](C)O1 [Daunorubicin]
[1]
  Antiproliferative combination effect after Compound A2 washout: maintained
  Antiproliferative combination effect with Compound A2: synergistic
[2]
  Antiproliferative combination effect after Compound A2 washout: maintained
  Antiproliferative combination effect with Compound A2: synergistic
[3]
  Combination effect with Compound A2 (Table 2): did not act synergistically
  Effect of Compound A2 on antiproliferative activity of the second agent: did not affect
[4]
  Combination effect with Compound A2 (Table 3): Synergy (key: Synergy: Drug synergy was statistically defined by CI values less than 1; Antagonistic: antagonism by CI>1; Additive: additive effect by CI equal to 1)
[5]
  Combination effect with Compound A2 (Table 3): Synergy (key: Synergy: Drug synergy was statistically defined by CI values less than 1; Antagonistic: antagonism by CI>1; Additive: additive effect by CI equal to 1)

## O=C(Nc1ccc2[nH]nc(-c3ccncc3)c2c1)[C@@H]1CCN(CC(=O)N2CCN(c3ccc(-c4ncccn4)cc3)CC2)C1 [SCH772984]
[6]
  Summary of Combination Studies: SKM-1: Synergy (considered synergistic if the IC50 value of the second compound decreased by 2-fold or more when EPZ-5676 was added as compared to the DMSO control)
[7]
  Combination result with EPZ-5676, Primary screen: Synergy (considered synergistic if the GI100 (Growth inhibition 100) value of the second compound decreased by 2-fold or more when EPZ-5676 was added as compared to the DMSO control)
[8]
  Combination result with EPZ-5676, Primary screen: Synergy (considered synergistic if the GI100 (Growth inhibition 100) value of the second compound decreased by 2-fold or more when EPZ-5676 was added as compared to the DMSO control)
[9]
  Combination result with EPZ-5676, Primary screen: Synergy (considered synergistic if the GI100 (Growth inhibition 100) value of the second compound decreased by 2-fold or more when EPZ-5676 was added as compared to the DMSO control)
[10]; Homo sapiens, Ras mutation status: None known, second compound, 72 h
  GI50: 210 nM
[10]; 150 nM EPZ-5676 pre-treatment vs DMSO
  Combination result with EPZ-5676, Retest: Synergy (considered synergistic if the GI100 (Growth inhibition 100) value of the second compound decreased by 2-fold or more when EPZ-5676 was added as compared to the DMSO control)
[10]; Ras mutation status: None known
  Result (combination with EPZ-5676): Synergy (considered synergistic if the GI100 (Growth inhibition 100) value of the second compound decreased by 2-fold or more when EPZ-5676 was added as compared to the DMSO control)
[10]; Ras mutation status: None known, second compound, 72 h
  GI100: 0.53
[11]; [16]
  Combination result with EPZ-5676, Retest: Synergy (considered synergistic if the GI100 (Growth inhibition 100) value of the second compound decreased by 2-fold or more when EPZ-5676 was added as compared to the DMSO control)
[11]; KRAS K117N (homo)
  Result (combination with EPZ-5676): Synergy (considered synergistic if the GI100 (Growth inhibition 100) value of the second compound decreased by 2-fold or more when EPZ-5676 was added as compared to the DMSO control)
[11]; [17]
  GI50: 20 nM
  GI100: 0.086
[12]; [16]
  Combination result with EPZ-5676, Retest: Synergy (considered synergistic if the GI100 (Growth inhibition 100) value of the second compound decreased by 2-fold or more when EPZ-5676 was added as compared to the DMSO control)
[12]; NRAS Q61R (het)
  Result (combination with EPZ-5676): Synergy (considered synergistic if the GI100 (Growth inhibition 100) value of the second compound decreased by 2-fold or more when EPZ-5676 was added as compared to the DMSO control)
[12]; NRAS Q61R (het), second compound, 72 h
  GI50: 70 nM
[13]
  GI50: 60 nM
  GI100: >10
[14]
  Result (combination with EPZ-5676): Synergy (considered synergistic if the GI100 (Growth inhibition 100) value of the second compound decreased by 2-fold or more when EPZ-5676 was added as compared to the DMSO control)
[14]; second compound, 72 h
  GI50: 40 nM
  GI100: 0.26
[15]; Homo sapiens
  GI50: 7240 nM
[15]
  GI100: >10

## Nc1ncn([C@@H]2O[C@H](CO)[C@@H](O)[C@H]2O)c(=O)n1 [Azacitidine]
[1]; MOLM-13 (MLL-AF9), 7 Day Cotreatment Model
  Combination effect with Compound A2 (Table 4): Strong Synergy
[1]; MOLM-13 MLL-AF9
  Combination effect with Compound A2 (Table 2): Synergy (Drug synergy was statistically defined by CI values less than 1)
[2]; MV4-11, 7 Day Cotreatment (Example 1)
  Combination effect with Compound A2: Synergy (A combination index less than one indicates synergy)
[2]; MV4-11 MLL-AF4
  Combination effect with Compound A2 (Table 2): Synergy (Drug synergy was statistically defined by CI values less than 1)
[3]; SKM-1 non-MLL-rearranged (Example 5)
  Effect of Compound A2 on antiproliferative activity of the second agent: no impact
[4]; EOL-1 (MLL-PTD)
  Combination effect with Compound A2 (Table 3): Synergy (Drug synergy was statistically defined by CI values less than 1)
[5]; KOPM-88 (MLL-PTD)
  Combination effect with Compound A2 (Table 3): Synergy (Drug synergy was statistically defined by CI values less than 1)
